Test results published in publication PMC6556873, “Rapid Covalent-Probe Discovery by Electrophile-Fragment Screening” (Journal of the American Chemical Society, 2019).
Read-outs that look alike come from different tables or passages of the source.

Key:
[1] = target: T1, NUDT7 (Homo sapiens, UniProt P0C024); design: Intact protein LC/MS covalent labelling, fragments in pools of five, 200 uM each, 4 °C; conditions: 24 h, 4 °C, pool of five; 200 µM; covalent
T1 construct: residues 14-235, E. coli, pNIC28-Bsa4, N-terminal His6 tag removed by TEV, construct 26672 Da
T1 sequence (P0C024 14-235): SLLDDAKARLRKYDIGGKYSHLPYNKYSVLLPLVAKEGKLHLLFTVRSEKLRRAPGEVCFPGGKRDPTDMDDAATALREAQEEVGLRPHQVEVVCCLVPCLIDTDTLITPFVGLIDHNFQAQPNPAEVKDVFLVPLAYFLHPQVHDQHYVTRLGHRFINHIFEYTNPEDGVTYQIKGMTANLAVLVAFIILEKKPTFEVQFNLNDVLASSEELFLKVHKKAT
Description: (§1) Incubations were performed at 200 μM for each compound and 2 μM of protein (10 μM for BSA) for 24 h at 4 °C with moderate shaking. Incubation buffers varied among proteins (PBS pH 7.4 for QSOX1 and BSA; 10 mM HEPES pH 7.5, 0.3 M NaCl, 0.5 mM TCEP for PCAF, UPS8, and NUDT7; […]; 10 mM Na2HPO4 pH 7.5 100 mM NaCl 5 mM β-mercaptoethanol for NV3CP; 20 mM Na phosphate pH 7.5 for NNMT; […]. The reaction was stopped by quenching with formic acid, 0.4% final concentration. Each protein was incubated with the electrophilic library in pools of five compounds per well. The pool’s composition maximized the difference in mass between fragments in the same well. Incubations were performed with each fragment at 200 μM, for 24 h at 4 °C, to allow the screening of proteins that are not stable for long time periods at higher temperatures. Following incubation, we used intact protein [compound left out] chromatography/mass spectrometry (LC/MS) to identify the fragments and quantify their labeling (Figure 3A). […] There was good agreement between the percent of labeling of NUDT7 by 100 random individual compounds and that obtained in pools of five (R^2=0.78; Figure S6 and Data set 2 in the Supporting Information).

[2] = target: T2, PCAF (Homo sapiens, UniProt Q92831); design: Intact protein LC/MS covalent labelling, fragments in pools of five, 200 uM each, 4 °C; conditions: 24 h, 4 °C, pool of five; 200 µM; covalent
T2 construct: gene KAT2B
T2 sequence (Q92831 whole entry, the tested form may be a part): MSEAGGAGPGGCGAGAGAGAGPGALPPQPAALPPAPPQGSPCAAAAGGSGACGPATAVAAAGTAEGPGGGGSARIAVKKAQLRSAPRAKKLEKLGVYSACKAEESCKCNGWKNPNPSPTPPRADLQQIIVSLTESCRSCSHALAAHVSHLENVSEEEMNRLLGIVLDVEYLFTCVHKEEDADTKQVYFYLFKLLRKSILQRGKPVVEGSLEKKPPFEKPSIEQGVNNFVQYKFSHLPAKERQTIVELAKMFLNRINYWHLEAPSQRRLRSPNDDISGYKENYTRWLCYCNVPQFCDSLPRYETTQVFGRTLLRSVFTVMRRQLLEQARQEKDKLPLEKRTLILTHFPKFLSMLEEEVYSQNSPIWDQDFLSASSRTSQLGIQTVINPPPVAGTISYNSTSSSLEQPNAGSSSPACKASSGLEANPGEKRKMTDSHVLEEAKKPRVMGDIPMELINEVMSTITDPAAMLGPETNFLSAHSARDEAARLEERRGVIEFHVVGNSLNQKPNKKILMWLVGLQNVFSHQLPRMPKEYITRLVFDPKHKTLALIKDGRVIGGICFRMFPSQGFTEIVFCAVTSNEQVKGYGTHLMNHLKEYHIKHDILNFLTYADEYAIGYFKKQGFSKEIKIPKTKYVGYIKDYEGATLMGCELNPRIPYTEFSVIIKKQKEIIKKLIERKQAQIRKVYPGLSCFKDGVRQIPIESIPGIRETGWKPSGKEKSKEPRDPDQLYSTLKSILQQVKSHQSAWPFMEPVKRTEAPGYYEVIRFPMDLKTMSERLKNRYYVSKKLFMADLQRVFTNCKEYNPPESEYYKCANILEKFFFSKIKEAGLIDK
Description: as §1

[3] = target: T3, OTUB2 (OTUB2A) (Homo sapiens, UniProt Q96DC9); design: Intact protein LC/MS covalent labelling, fragments in pools of five, 200 uM each, 4 °C; conditions: 24 h, 4 °C, pool of five; 200 µM; covalent
T3 construct: full length residues 1-234, E. coli BL21(DE3)-R3, His tag removed by TEV, construct 27312 Da
T3 sequence (Q96DC9 1-234): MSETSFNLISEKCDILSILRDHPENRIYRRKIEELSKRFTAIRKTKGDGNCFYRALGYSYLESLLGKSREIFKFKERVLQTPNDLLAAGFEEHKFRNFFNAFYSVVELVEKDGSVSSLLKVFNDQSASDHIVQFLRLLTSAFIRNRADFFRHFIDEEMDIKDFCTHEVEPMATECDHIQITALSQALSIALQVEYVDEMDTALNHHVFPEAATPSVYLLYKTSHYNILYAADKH
Description: as §1

[4] = target: T4, BSA (Bos taurus, UniProt P02769); design: Intact protein LC/MS covalent labelling, fragments in pools of five, 200 uM each, 4 °C; conditions: 24 h, 4 °C, pool of five; 200 µM; covalent
T4 construct: gene ALB
T4 sequence (P02769 whole entry, the tested form may be a part): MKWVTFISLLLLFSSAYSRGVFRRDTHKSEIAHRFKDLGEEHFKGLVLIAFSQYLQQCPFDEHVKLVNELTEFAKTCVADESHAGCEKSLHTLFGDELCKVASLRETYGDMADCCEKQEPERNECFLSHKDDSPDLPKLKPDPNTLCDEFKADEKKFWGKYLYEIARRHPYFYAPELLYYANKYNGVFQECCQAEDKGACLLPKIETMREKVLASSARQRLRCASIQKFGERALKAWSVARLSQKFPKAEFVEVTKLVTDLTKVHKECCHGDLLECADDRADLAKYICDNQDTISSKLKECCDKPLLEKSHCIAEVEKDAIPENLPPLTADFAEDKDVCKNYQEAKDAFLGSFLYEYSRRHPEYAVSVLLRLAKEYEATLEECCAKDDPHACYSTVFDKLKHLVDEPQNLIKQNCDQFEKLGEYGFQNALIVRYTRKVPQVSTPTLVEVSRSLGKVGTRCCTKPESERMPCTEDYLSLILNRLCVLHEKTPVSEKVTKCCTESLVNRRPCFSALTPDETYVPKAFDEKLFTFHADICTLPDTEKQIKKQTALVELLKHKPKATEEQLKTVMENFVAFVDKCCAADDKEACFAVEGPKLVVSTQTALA
Description: as §1

[5] = in vitro; design: species or system CCD841, HEK293; conditions: human, hb2 cells, read-out: HB-2 Cells Viability (%)
[6] = in vitro; design: species or system HB2, HEK293; conditions: human, ccd841 cells
[7] = in vitro; design: species or system HB2, CCD841; conditions: human, hek293 cells

| Structure (SMILES) | NUDT7 [1] | PCAF [2] | OTUB2 [3] | BSA [4] | viability at 48 h, 10 µM [5] [%] | viability at 48 h, 10 µM [6] [%] | viability at 48 h, 10 µM [7] [%] |
| --- | --- | --- | --- | --- | --- | --- | --- |
| CNC(=O)C1CN(C(=O)CCl)c2ccccc2O1 (centres unmarked) [PCM-0102221] | 0 | 0 | 0.15 | 0 | 82.1 | 58.1 | 53 |
| O=C(CCl)NC(=O)c1cccs1 [PCM-0102222] | 0 | 0 | 0 | 0.2 | 110 | 105 | 109 |
| N#CC(c1cccs1)N1CCN(C(=O)CCl)CC1 (centres unmarked) [PCM-0102223] | 0 | 0 | 0 | 0 | 74 | 75.5 | 64.6 |
| Cc1ccc(-n2nc(C)cc2NC(=O)CCl)cc1 [PCM-0102224] | 0 | 0 | 0.35 | 0 | 49.3 | 67.5 | 24.9 |
| Cc1n[nH]c(=O)c2c(NC(=O)CCl)oc(C)c12 [PCM-0102226] | 0 | 0 | 0 | 0 | 108 | 112 | 104 |
| O=C(CCl)Nc1ccc(Br)cn1 [PCM-0102227] | 0 | 0 | 0 | 0 | 84.3 | 75.7 | 72.4 |
| CC1(NC(=O)CCl)CCS(=O)(=O)C1 (centres unmarked) [PCM-0102230] | 0 | 0 | 0 | 0 | 105 | 92.7 | 92.6 |
| CCc1nc(NC(=O)CCl)sc1C [PCM-0102231] | 0.33 | 0 | 0 | 0 | 61.1 | 78.9 | 56.5 |
| O=C(CCl)Nc1ccccc1[N+](=O)[O-] [PCM-0102232] | 0.24 | 0 | 0.2 | 0 | 75.4 | 81.8 | 73.9 |
| O=C(CCl)Nc1nc(-c2c[nH]c3ccccc23)cs1 [PCM-0102233] | 0.26 | 0 | 0.25 | 0 | 4.8 | 65 | 6.5 |
| COc1ccccc1NC(=O)CCl [PCM-0102236] | 0 | 0 | 0.28 | 0 | 71 | 79 | 58.4 |
| O=C(CCl)N1CCN(S(=O)(=O)c2ccc(F)cc2)CC1 [PCM-0102237] | 0.06 | 0 | 0 | 0 | 78.8 | 77 | 66.9 |
| O=C(CCl)Nc1ccc(F)c([N+](=O)[O-])c1 [PCM-0102238] | 0.23 | 0 | 0.32 | 0 | 1 | 3.7 | 0.8 |
| Cl.O=C(CCl)N1CCN(c2cccc(C(F)(F)F)c2)CC1 [PCM-0102239] | 0.08 | 0 | 0 | 0.07 | 4.2 | 28.2 | 19.6 |
| O=C(CCl)NNC(=O)c1ccccc1 [PCM-0102240] | 0 | 0 | 0.2 | 0 | 98.1 | 85.6 | 92.4 |
| O=C(CCl)Nc1nccs1 [PCM-0102242] | 0 | 0 | 0 | 0.17 | 88.3 | 79.3 | 70.1 |
| Cl.O=C(CCl)N1CCN(Cc2cccs2)CC1 [PCM-0102243] | 0.08 | 0 | 0 | 0 | 45.7 | 77.1 | 43.5 |
| O=C(CCl)Nc1nc(-c2ccc(F)c(F)c2)cs1 [PCM-0102244] | 0.53 | 0 | 0.29 | 0.15 | 6.9 | 76.5 | 0.9 |
| NC(=O)C1CN(C(=O)CCl)c2ccccc2O1 (centres unmarked) [PCM-0102245] | 0.12 | 0 | 0.15 | 0 | 58.4 | 60.8 | 31.8 |
| Cc1cc(C)c2nc(NC(=O)CCl)sc2c1 [PCM-0102246] | 0.83 | 0 | 0.14 | 0 | 51.6 | 79.8 | 67.3 |
| O=C(CCl)Nc1cc(F)ccc1C(=O)O [PCM-0102247] | 0 | 0 | 0 | 0 | 106 | 95.7 | 97 |
| Cc1ccc(C)c(-n2nc(C)cc2NC(=O)CCl)c1 [PCM-0102249] | 0 | 0 | 0.43 | 0 | 45.3 | 64 | 25.4 |
| CC1CCC(C#N)(N(C)C(=O)CCl)CC1 (centres unmarked) [PCM-0102251] | 0.05 | 0 | 0 | 0 | 16.5 | 55.4 | 3.9 |
| COc1ccc(N2CCN(C(=O)CCl)CC2)cc1 [PCM-0102254] | 0 | 0 | 0 | 0 | 33.8 | 84.2 | 42.2 |
| CC(NC(=O)CCl)c1ccccc1Br (centres unmarked) [PCM-0102256] | 0.19 | 0 | 0.29 | 0 | 39 | 67.3 | 27.3 |
| O=C(CCl)N1CCN(C(=O)Nc2ccccc2)CC1 [PCM-0102257] | 0.07 | 0 | 0 | 0 | 34.8 | 56.6 | 8.5 |
| O=C(CCl)Nc1cc(Cl)ccc1-n1cncn1 [PCM-0102258] | 0.21 | 0 | 0 | 0 | 53.8 | 51.7 | 11.7 |
| CN(CC(=O)NC(C)(C)C)C(=O)CCl [PCM-0102259] | 0 | 0 | 0 | 0 | 97.2 | 85.2 | 69 |
| CC(C)(C)C1CCc2sc(C(=O)NNC(=O)CCl)cc2C1 (centres unmarked) [PCM-0102260] | 0 | 0 | 0.67 | 0 | 64 | 29.7 | 10.2 |
